From paper PMC4675551, “Protein Kinase C-Independent Inhibition of Organic Cation Transporter 1 Activity by the Bisindolylmaleimide Ro 31-8220” (PLoS ONE, 2015)

Columns and labels:
Assay type in all cases: cell-based
[1] = molecular target: T1, organic cation transporter 1 (OCT1) (Homo sapiens, UniProt O15245); assay: inhibition of […]-TEA uptake in HEK-OCT1 cells, […], more than […] inhibition; conditions: read-out: % inhibition at 5 μM
T1 construct: gene SLC22A1; NM_003057 overexpressed in HEK293 cells
T1 sequence (O15245 1-554): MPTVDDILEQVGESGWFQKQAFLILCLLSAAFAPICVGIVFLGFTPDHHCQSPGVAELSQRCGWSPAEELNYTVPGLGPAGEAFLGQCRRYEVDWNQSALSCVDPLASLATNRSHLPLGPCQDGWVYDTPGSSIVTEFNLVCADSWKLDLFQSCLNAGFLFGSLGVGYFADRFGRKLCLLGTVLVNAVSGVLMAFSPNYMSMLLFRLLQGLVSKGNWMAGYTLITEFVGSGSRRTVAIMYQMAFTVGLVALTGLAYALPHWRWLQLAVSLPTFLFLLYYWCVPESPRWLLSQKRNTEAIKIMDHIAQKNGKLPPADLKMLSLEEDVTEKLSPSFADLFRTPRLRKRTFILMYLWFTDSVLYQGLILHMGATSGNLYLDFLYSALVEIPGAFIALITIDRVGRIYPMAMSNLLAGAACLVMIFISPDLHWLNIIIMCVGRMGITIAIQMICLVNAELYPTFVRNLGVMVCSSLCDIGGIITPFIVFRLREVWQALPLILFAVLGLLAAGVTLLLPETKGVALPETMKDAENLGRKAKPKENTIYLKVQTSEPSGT

[2] = molecular target: T1, organic cation transporter 1 (OCT1); assay: cis-inhibition of […]-TEA uptake in HEK-OCT1 cells
[3] = molecular target: T2, organic cation transporter 2 (OCT2) (Homo sapiens, UniProt O15244); assay: cis-stimulation of […]-TEA uptake in HEK-OCT2 cells
T2 construct: gene SLC22A2; NM_003058 overexpressed in HEK293 cells
T2 sequence (O15244 1-555): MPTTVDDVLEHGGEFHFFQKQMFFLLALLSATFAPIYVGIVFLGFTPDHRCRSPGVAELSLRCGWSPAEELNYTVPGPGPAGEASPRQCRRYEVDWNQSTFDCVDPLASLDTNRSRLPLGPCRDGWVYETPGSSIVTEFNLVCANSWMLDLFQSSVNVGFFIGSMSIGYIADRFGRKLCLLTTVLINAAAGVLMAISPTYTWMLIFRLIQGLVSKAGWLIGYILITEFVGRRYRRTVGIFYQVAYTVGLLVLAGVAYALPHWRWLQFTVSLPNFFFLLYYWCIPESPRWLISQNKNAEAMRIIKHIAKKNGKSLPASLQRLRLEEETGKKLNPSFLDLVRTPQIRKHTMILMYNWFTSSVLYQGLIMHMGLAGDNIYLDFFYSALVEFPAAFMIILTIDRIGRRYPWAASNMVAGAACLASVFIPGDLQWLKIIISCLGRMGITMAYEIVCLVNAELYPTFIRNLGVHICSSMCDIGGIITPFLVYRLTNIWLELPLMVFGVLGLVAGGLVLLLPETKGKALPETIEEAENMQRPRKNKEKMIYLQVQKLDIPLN

[4] = molecular target: T3, multidrug and toxin extrusion protein 1 (MATE1) (Homo sapiens, UniProt Q96FL8); assay: inhibition of […]-TEA uptake in HEK-MATE1 cells
T3 construct: gene SLC47A1; NM_018242 overexpressed in HEK293 cells
T3 sequence (Q96FL8 1-570): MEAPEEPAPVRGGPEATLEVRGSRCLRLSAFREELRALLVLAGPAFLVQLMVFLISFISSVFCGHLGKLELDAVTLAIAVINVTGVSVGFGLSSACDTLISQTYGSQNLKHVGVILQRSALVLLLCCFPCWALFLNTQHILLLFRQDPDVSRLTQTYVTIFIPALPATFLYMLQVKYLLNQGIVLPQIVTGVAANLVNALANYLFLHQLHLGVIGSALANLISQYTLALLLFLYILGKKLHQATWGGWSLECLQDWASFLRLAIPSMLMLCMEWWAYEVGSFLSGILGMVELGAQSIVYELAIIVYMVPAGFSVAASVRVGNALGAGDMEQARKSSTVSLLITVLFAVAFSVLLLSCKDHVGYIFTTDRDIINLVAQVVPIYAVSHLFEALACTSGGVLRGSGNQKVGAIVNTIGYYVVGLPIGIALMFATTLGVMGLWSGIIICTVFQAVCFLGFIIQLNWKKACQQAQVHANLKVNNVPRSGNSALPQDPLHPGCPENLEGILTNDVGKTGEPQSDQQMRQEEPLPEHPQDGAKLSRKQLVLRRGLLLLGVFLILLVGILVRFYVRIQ

MATE2-K = molecular target: T4, MATE2-K (Homo sapiens, UniProt Q86VL8); assay: inhibition of […]-TEA uptake in HEK-MATE2-K cells
T4 construct: gene SLC47A2; NM_152908 overexpressed in HEK293 cells
T4 sequence (Q86VL8 1-566 isoform Q86VL8-3): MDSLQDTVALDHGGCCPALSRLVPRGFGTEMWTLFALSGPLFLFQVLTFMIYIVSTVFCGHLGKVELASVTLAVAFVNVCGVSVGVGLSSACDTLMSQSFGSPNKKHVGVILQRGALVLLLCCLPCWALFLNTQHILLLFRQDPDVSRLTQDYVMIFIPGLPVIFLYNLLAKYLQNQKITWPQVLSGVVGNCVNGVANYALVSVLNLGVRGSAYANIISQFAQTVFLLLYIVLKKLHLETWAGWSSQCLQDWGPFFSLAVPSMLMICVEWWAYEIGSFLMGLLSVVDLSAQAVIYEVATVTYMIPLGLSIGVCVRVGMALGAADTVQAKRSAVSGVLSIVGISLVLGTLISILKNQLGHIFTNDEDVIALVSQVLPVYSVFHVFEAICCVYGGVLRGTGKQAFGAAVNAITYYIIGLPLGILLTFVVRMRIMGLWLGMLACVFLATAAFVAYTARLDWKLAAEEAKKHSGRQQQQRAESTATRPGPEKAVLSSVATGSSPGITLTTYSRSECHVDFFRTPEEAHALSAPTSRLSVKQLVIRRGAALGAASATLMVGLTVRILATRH

[5] = molecular target: T1, organic cation transporter 1 (OCT1); assay: inhibition of TEA and DAPI uptake in HEK-OCT1 cells at […]

SMILES	inhibition at 5 µM [1] [%]	other results
CN1CCCC1CCn1cc(C2=C(c3c[nH]c4ccccc34)C(=O)NC2=O)c2ccccc21 (stereo not shown) [BIM-II]	> 50	
CN(C)CCCn1cc(C2=C(c3c[nH]c4ccccc34)C(=O)NC2=O)c2ccccc21 [BIM-I]	> 50	
CN(C)C[C@@H]1CCn2cc(c3ccccc32)C2=C(C(=O)NC2=O)c2cn(c3ccccc23)CCO1 [LY 333531]	> 50	
Cn1cc(C2=C(c3cn(CCCSC(=N)N)c4ccccc34)C(=O)NC2=O)c2ccccc21 [BIM-IX, Ro 31–8220]		IC50 [2]: 180 ± 50 nM; EC50 [3]: 400 ± 10 nM; IC50 [4]: 39 ± 6 nM; IC50 (MATE2-K): 190 ± 70 nM
Cn1cc(C2=C(c3cn(CCCN)c4ccccc34)C(=O)NC2=O)c2ccccc21 [BIM-VIII]	> 50	
NCCCn1cc(C2=C(c3c[nH]c4ccccc34)C(=O)NC2=O)c2ccccc21 [BIM-III]	> 50	
COc1ccc(CCN(C)CCCC(C#N)(c2ccc(OC)c(OC)c2)C(C)C)cc1OC (stereo not shown) [verapamil]		inhibition of TEA and DAPI uptake in HEK-OCT1 cells at 50 μM [5]: the reference OCT1 inhibitor verapamil similarly inhibited DAPI uptake
